Data as given in patent US11840686B2, “Modulation of prekallikrein (PKK) expression” (Ionis Pharmaceuticals, Inc., priority 2013, dated 2023).
Strand notation (5' to 3'): a small letter for the sugar, then the base; units joined by * are phosphorothioate-linked, units joined directly phosphodiester-linked; [ ] holds rarer units or linkages, { } end groups; capitals alone tell only the bases. e = 2'-O-(2-methoxyethyl) (MOE); [5mC] = 5-methylcytosine; d = 2'-deoxy (DNA)

Tested on: human PKK mRNA
Experiment: Antisense inhibition of human PKK mRNA in HepaRG cells, 5,000 nM (Example 2)
Assay type: cell-based
How it was run: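 qRT-PCR (RTS3454) read-out, RIBOGREEN-normalized; % inhibition vs untreated cells. HepaRG, 20,000 cells/well, electroporation, 5,000 nM ASO, ~24 h.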

[1] = Table 13, human PKK mRNA in HepaRG cells, 5-10-5 gapmers
[2] = human PKK mRNA in HepaRG cells, 5-10-5 gapmers, Table 14
[3] = human PKK mRNA, HepaRG cells, 5-10-5 motif oligonucleotides targeting SEQ ID NO: 1 and 10

Substance | % inhibition [2] | other results
546838 (e[5mC]*eT*eA*eT*eA*dA*d[5mC]*dT*d[5mC]*dT*dA*dA*d[5mC]*dA*dG*eT*eA*eT*e[5mC]*eA; antisense) [compound 546838] |  | % inhibition [1]: 43%
546839 (e[5mC]*e[5mC]*eT*eA*eT*dA*dA*d[5mC]*dT*d[5mC]*dT*dA*dA*d[5mC]*dA*eG*eT*eA*eT*e[5mC]; antisense) [compound 546839] |  | % inhibition [1]: 47%
546840 (e[5mC]*eT*eG*eT*e[5mC]*d[5mC]*dT*dA*dT*dA*dA*d[5mC]*dT*d[5mC]*dT*eA*eA*e[5mC]*eA*eG; antisense) [compound 546840] |  | % inhibition [1]: 53%
546841 (e[5mC]*eA*e[5mC]*eT*eG*dT*d[5mC]*d[5mC]*dT*dA*dT*dA*dA*d[5mC]*dT*e[5mC]*eT*eA*eA*e[5mC]; antisense) [compound 546841] |  | % inhibition [1]: 38%
546842 (eT*e[5mC]*eA*e[5mC]*eT*dG*dT*d[5mC]*d[5mC]*dT*dA*dT*dA*dA*d[5mC]*eT*e[5mC]*eT*eA*eA; antisense) [compound 546842] |  | % inhibition [1]: 54%
546843 (eT*eA*eT*e[5mC]*eA*d[5mC]*dT*dG*dT*d[5mC]*d[5mC]*dT*dA*dT*dA*eA*e[5mC]*eT*e[5mC]*eT; antisense) [compound 546843] |  | % inhibition [1]: 52%
546844 (eG*eT*e[5mC]*e[5mC]*eT*dA*dT*dA*dT*d[5mC]*dA*d[5mC]*dT*dG*dT*e[5mC]*e[5mC]*eT*eA*eT; antisense) [compound 546844] |  | % inhibition [1]: 75%
546845 (eT*eG*eT*e[5mC]*e[5mC]*dT*dA*dT*dA*dT*d[5mC]*dA*d[5mC]*dT*dG*eT*e[5mC]*e[5mC]*eT*eA; antisense) [compound 546845] |  | % inhibition [1]: 75%
546850 (eT*eA*eT*e[5mC]*eA*d[5mC]*dT*dG*dT*d[5mC]*d[5mC]*dT*dA*dT*dA*eT*e[5mC]*eA*e[5mC]*eT; antisense) [compound 546850] | 80% | 
546851 (eA*eG*eT*eA*eT*d[5mC]*dA*d[5mC]*dT*dG*dT*d[5mC]*d[5mC]*dT*dA*eT*eA*eT*e[5mC]*eA; antisense) [compound 546851] | 81% | 
546856 (eA*eA*e[5mC]*eT*eA*dT*dA*dA*d[5mC]*dA*dG*dT*dA*dT*d[5mC]*eA*e[5mC]*eT*eG*eT; antisense) [compound 546856] | 54% | 
546857 (eT*eA*eT*eA*eA*d[5mC]*dT*dA*dT*dA*dA*d[5mC]*dA*dG*dT*eA*eT*e[5mC]*eA*e[5mC]; antisense) [compound 546857] | 7% | 
546858 (e[5mC]*eT*eA*eT*eA*dA*d[5mC]*dT*dA*dT*dA*dA*d[5mC]*dA*dG*eT*eA*eT*e[5mC]*eA; antisense) [compound 546858] | 21% | 
546859 (eT*eT*eT*e[5mC]*e[5mC]*dT*dA*dT*dA*dA*d[5mC]*dT*dA*dT*dA*eA*e[5mC]*eA*eG*eT; antisense) [compound 546859] | 7% | 
546860 (e[5mC]*eT*eA*eG*eT*dT*dT*d[5mC]*d[5mC]*dT*dA*dT*dA*dA*d[5mC]*eT*eA*eT*eA*eA; antisense) [compound 546860] | 36% | 
546861 (eT*eA*eA*e[5mC]*eA*dA*dT*dA*dT*d[5mC]*dA*d[5mC]*dT*dG*dT*e[5mC]*e[5mC]*eT*eA*eT; antisense) [compound 546861] | 68% | 
546862 (eA*eA*e[5mC]*eT*eA*dT*dA*dA*d[5mC]*dA*dA*dT*dA*dT*d[5mC]*eA*e[5mC]*eT*eG*eT; antisense) [compound 546862] | 0% | 
546863 (eT*eA*eA*e[5mC]*eT*dA*dT*dA*dA*d[5mC]*dA*dA*dT*dA*dT*e[5mC]*eA*e[5mC]*eT*eG; antisense) [compound 546863] | 21% | 
546864 (eA*eT*eA*eA*e[5mC]*dT*dA*dT*dA*dA*d[5mC]*dA*dA*dT*dA*eT*e[5mC]*eA*e[5mC]*eT; antisense) [compound 546864] | 0% | 
546865 (eT*eA*eT*eA*eA*d[5mC]*dT*dA*dT*dA*dA*d[5mC]*dA*dA*dT*eA*eT*e[5mC]*eA*e[5mC]; antisense) [compound 546865] | 0% | 
546866 (eG*eT*eT*eT*e[5mC]*d[5mC]*dT*dA*dT*dA*dA*d[5mC]*dT*dA*dT*eA*eA*e[5mC]*eA*eA; antisense) [compound 546866] | 35% | 
546867 (eA*e[5mC]*e[5mC]*eT*eA*dT*dA*dA*d[5mC]*dT*d[5mC]*dT*dA*dA*d[5mC]*eA*eG*eT*eA*eT; antisense) [compound 546867] | 40% | 
546868 (eT*eA*e[5mC]*e[5mC]*eT*dA*dT*dA*dA*d[5mC]*dT*d[5mC]*dT*dA*dA*e[5mC]*eA*eG*eT*eA; antisense) [compound 546868] | 51% | 
546869 (eT*eG*eT*eA*e[5mC]*d[5mC]*dT*dA*dT*dA*dA*d[5mC]*dT*d[5mC]*dT*eA*eA*e[5mC]*eA*eG; antisense) [compound 546869] | 53% | 

Substance | % inhibition [2] | other results
546871 (eA*e[5mC]*eT*eG*eT*dA*d[5mC]*d[5mC]*dT*dA*dT*dA*dA*d[5mC]*dT*e[5mC]*eT*eA*eA*e[5mC]; antisense) [compound 546871] | 73% | 
546873 (e[5mC]*eA*eA*eT*eA*dT*d[5mC]*dA*d[5mC]*dT*dG*dT*dA*d[5mC]*d[5mC]*eT*eA*eT*eA*eA; antisense) [compound 546873] | 34% | 
546874 (eA*eT*eA*eA*e[5mC]*dA*dA*dT*dA*dT*d[5mC]*dA*d[5mC]*dT*dG*eT*eA*e[5mC]*e[5mC]*eT; antisense) [compound 546874] | 68% | 
546875 (eA*e[5mC]*eT*eA*eT*dA*dA*d[5mC]*dA*dA*dT*dA*dT*d[5mC]*dA*e[5mC]*eT*eG*eT*eA; antisense) [compound 546875] | 33% | 
546878 (e[5mC]*e[5mC]*eT*eA*eT*dA*dA*d[5mC]*dA*dG*dT*dA*dT*d[5mC]*dA*e[5mC]*eT*eG*eT*e[5mC]; antisense) [compound 546878] | 81% | 
546879 (eT*eT*eT*e[5mC]*e[5mC]*dT*dA*dT*dA*dA*d[5mC]*dA*dG*dT*dA*eT*e[5mC]*eA*e[5mC]*eT; antisense) [compound 546879] | 42% | 
546880 (eG*eT*eT*eT*e[5mC]*d[5mC]*dT*dA*dT*dA*dA*d[5mC]*dA*dG*dT*eA*eT*e[5mC]*eA*e[5mC]; antisense) [compound 546880] | 41% | 
546881 (eA*eG*eT*eT*eT*d[5mC]*d[5mC]*dT*dA*dT*dA*dA*d[5mC]*dA*dG*eT*eA*eT*e[5mC]*eA; antisense) [compound 546881] | 49% | 
546882 (eT*eA*eG*eT*eT*dT*d[5mC]*d[5mC]*dT*dA*dT*dA*dA*d[5mC]*dA*eG*eT*eA*eT*e[5mC]; antisense) [compound 546882] | 24% | 
546883 (e[5mC]*eT*eA*eG*eT*dT*dT*d[5mC]*d[5mC]*dT*dA*dT*dA*dA*d[5mC]*eA*eG*eT*eA*eT; antisense) [compound 546883] | 19% | 
546884 (eA*e[5mC]*eT*eA*eG*dT*dT*dT*d[5mC]*d[5mC]*dT*dA*dT*dA*dA*e[5mC]*eA*eG*eT*eA; antisense) [compound 546884] | 6% | 
546885 (eT*eA*eT*eG*eT*d[5mC]*dA*d[5mC]*dT*dG*dT*dA*d[5mC]*d[5mC]*dT*eA*eT*eA*eA*e[5mC]; antisense) [compound 546885] |  | % inhibition [3]: 46%
546886 (e[5mC]*eT*eA*eT*eG*dT*d[5mC]*dA*d[5mC]*dT*dG*dT*dA*d[5mC]*d[5mC]*eT*eA*eT*eA*eA; antisense) [compound 546886] |  | % inhibition [3]: 80%
546887 (e[5mC]*e[5mC]*eT*eA*eT*dG*dT*d[5mC]*dA*d[5mC]*dT*dG*dT*dA*d[5mC]*e[5mC]*eT*eA*eT*eA; antisense) [compound 546887] |  | % inhibition [3]: 82%
546888 (eT*e[5mC]*e[5mC]*eT*eA*dT*dG*dT*d[5mC]*dA*d[5mC]*dT*dG*dT*dA*e[5mC]*e[5mC]*eT*eA*eT; antisense) [compound 546888] |  | % inhibition [3]: 78%
546890 (eT*eG*eT*e[5mC]*e[5mC]*dT*dA*dT*dG*dT*d[5mC]*dA*d[5mC]*dT*dG*eT*eA*e[5mC]*e[5mC]*eT; antisense) [compound 546890] |  | % inhibition [3]: 78%
546891 (e[5mC]*eT*eG*eT*e[5mC]*d[5mC]*dT*dA*dT*dG*dT*d[5mC]*dA*d[5mC]*dT*eG*eT*eA*e[5mC]*e[5mC]; antisense) [compound 546891] |  | % inhibition [3]: 81%
546892 (eA*e[5mC]*eT*eG*eT*d[5mC]*d[5mC]*dT*dA*dT*dG*dT*d[5mC]*dA*d[5mC]*eT*eG*eT*eA*e[5mC]; antisense) [compound 546892] |  | % inhibition [3]: 82%
546893 (e[5mC]*eA*e[5mC]*eT*eG*dT*d[5mC]*d[5mC]*dT*dA*dT*dG*dT*d[5mC]*dA*e[5mC]*eT*eG*eT*eA; antisense) [compound 546893] |  | % inhibition [3]: 70%
546895 (eT*eA*eT*e[5mC]*eA*d[5mC]*dT*dG*dT*d[5mC]*d[5mC]*dT*dA*dT*dG*eT*e[5mC]*eA*e[5mC]*eT; antisense) [compound 546895] |  | % inhibition [3]: 77%
546898 (eA*eA*e[5mC]*eA*eG*dT*dA*dT*d[5mC]*dA*d[5mC]*dT*dG*dT*d[5mC]*e[5mC]*eT*eA*eT*eG; antisense) [compound 546898] |  | % inhibition [3]: 91%
546899 (e[5mC]*eT*eA*e[5mC]*e[5mC]*dT*dA*dT*dA*dA*d[5mC]*dT*d[5mC]*dT*dA*eA*e[5mC]*eA*eG*eT; antisense) [compound 546899] |  | % inhibition [3]: 27%
546901 (eA*e[5mC]*eT*eG*eT*d[5mC]*d[5mC]*dT*dA*dT*dA*dA*d[5mC]*dT*dA*eT*eA*eA*e[5mC]*eA; antisense) [compound 546901] |  | % inhibition [3]: 56%
546902 (e[5mC]*eA*e[5mC]*eT*eG*dT*d[5mC]*d[5mC]*dT*dA*dT*dA*dA*d[5mC]*dT*eA*eT*eA*eA*e[5mC]; antisense) [compound 546902] |  | % inhibition [3]: 71%
